Source: patent US8058306B2, “Phenyl pyrrole aminoguanidine derivatives” (Action Pharma A/S, priority 2006, dated 2011)

Legend:
[1] = tested on: IL10; experiment: Inhibition of LPS-induced IL10 production in rats; type: in vivo, rat; conditions: for Serum IL10 measured 120 after initiation of LPS infusion: mean ± SE, N = 6; for reduction of serum level of IL10 compared to vehicle treatment: 5.0 mg/kg dose level; for dose level of maximal effect (IL10): doses tested 0.1, 1.0, 5.0 mg/kg i.v.
Experimental: (§1) Experimental animals. Female Wistar rats (˜250 g) were obtained from the Charles River, Sulzfeld, Germany, and housed in a temperature- (22-24° C.) and moisture-controlled (40-70%) room with a 12 h light-dark cycle (light on from 6:00 A.M. to 6:00 P.M.). The rats were maintained on a standard rodent diet with 140 mmol/kg of sodium, 275 mmol/kg potassium and 23% protein (Altromin International, Lage, Germany) and had free access to water.
(§2) Animal preparation. […] After instrumentation, the animals were housed individually for 7-10 days until the day of the experiment.
(§3) Experimental protocol. Prior to the experiments all rats were adapted to the restraining cage used for the experiments by training. On the day of the experiment, the animal were transferred to a restraining cage, and an intravenous infusion of vehicle solution containing 150 mM glucose was started. The infusion rate was 0.5 ml/h throughout the experiment. After a short adaptation period, infusion of lipopolysaccharide (LPS) was started. LPS (E. coli serotype 0127 B8, L 3129, Sigma, St. Louis, USA) was given at a dose of 4 mg/kg body weight delivered as an i.v. infusion over 1 hour.
(§4) Arterial blood samples of 0.3 ml were taken 120 minutes after start of the LPS infusion.
(§5) In addition to LPS infusion all rats were treated with a bolus injection of:
(§6) Vehicle (0.5 mL 20% PEG200) or test compound in one of the following doses:
(§7) 0.1; 1.0; 5.0 mg/kg given intravenously 5 min prior to initiation of the LPS infusion.
(§8) Test compounds: Compound 1 of the invention (FIG. 1A, structure no. 1), compound 2 of the invention (FIG. 1D, structure no. 19) and compound 3 of the invention (FIG. 1I, structure no. 53).
(§9) Measurement of TNF-α and IL-10 in plasma: The blood samples were collected in a prechilled test tube with 0.5 mM EDTA, pH 7.4, and 20×10^6 IU/ml aprotinin. After centrifugation at 4° C., plasma samples were transferred to pre-chilled test tubes and stored at −20° C. for later measurements of TNF-α and IL-10. TNF-α and Il-10 in plasma were determined by an ELISA (Biotrak, Amersham, UK).
(§10) Statistical analyses. Results are presented as means±SE. A two-way ANOVA for repeated measures was used to test for differences between groups. In case of P<0.05, the differences between corresponding periods are evaluated by unpaired t-tests with Bonferroni's correction of the level of significance.

[2] = tested on: TNF-α; experiment: Inhibition of LPS-induced TNF-α production in rats; type: in vivo, rat; conditions: for Serum TNF-α measured 120 after initiation of LPS infusion: mean ± SE, N = 6; for reduction of serum level of TNF-α compared to vehicle treatment: 5.0 mg/kg dose level, 120 min after initiation of LPS infusion
Experimental: as §1, §2, §3, §4, §5, §6, §7, §8, §9, §10

[3] = target: T1, murine MC1 receptor (Mus musculus, UniProt Q01727); experiment: [125I]-NDP-MSH radio-ligand binding, MC1 receptor (B16-F1 melanoma cells); conditions: 90 min/22° C.
T1 construct: murine B16-F1 melanoma cells expressing MC1, but not other MC receptors, were used; endogenous in cells; host or cells: murine B16-F1 melanoma cells
T1 sequence (Q01727 whole entry): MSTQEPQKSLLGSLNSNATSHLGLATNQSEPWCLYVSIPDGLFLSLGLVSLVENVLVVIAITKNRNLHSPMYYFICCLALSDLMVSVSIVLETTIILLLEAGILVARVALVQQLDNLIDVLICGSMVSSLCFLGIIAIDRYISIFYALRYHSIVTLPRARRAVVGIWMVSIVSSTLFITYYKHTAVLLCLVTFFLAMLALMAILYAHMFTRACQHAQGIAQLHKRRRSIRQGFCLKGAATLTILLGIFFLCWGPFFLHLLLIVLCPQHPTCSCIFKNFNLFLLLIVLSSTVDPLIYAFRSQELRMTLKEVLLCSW
Experimental: (§11) Determination of binding affinities for MC receptors was performed by [^125I]-[Nle4,D-Phe7]α-MSH ([^125I]-NDP-MSH) radio-ligand binding. In short, murine B16-F1 melanoma cells expressing MC1, but not other MC receptors, were used for binding affinity studies against the murine MC1 receptor (Siegrist et al.; 1988, J. Recept. Res., 8(1-4):323-43). For human MC3, MC4 and MC5 receptor affinities human recombinant CHO cells were used (Schioth et al. 1997, Neuropeptides 31:565-71, 1997). Cells were suspended in HEPES buffer and by use of microwell plates radio-ligands, as well as test compound, in the concentration range of 10^−10 to 10^−6 were added. After incubation at 37° C. (22° C. for the MC1 receptor assay) separation of bound and free [^125I]-NDP-MSH was done by multiple washings with buffer.
(§12) The results were expressed as a percent of control specific binding obtained in the presence of the test compounds. The IC50 values (concentration causing a half-maximal inhibition of control specific binding) and Hill coefficients (nH) were determined by non-linear regression analysis of the competition curves using Hill equation curve fitting. The inhibition constants (Ki) were calculated from the Cheng Prusoff equation (Ki=IC50/(1+(L/KD)), where L=concentration of radio-ligand in the assay, and KD=affinity of the radio-ligand for the receptor).

[4] = target: T2, human MC4 receptor (Homo sapiens, UniProt P32245); experiment: [125I]-NDP-MSH radio-ligand binding, MC4 (h) receptor (recombinant CHO cells); conditions: 120 min/37° C.
T2 construct: expressed in transfected cells; host or cells: CHO cells
T2 sequence (P32245 whole entry): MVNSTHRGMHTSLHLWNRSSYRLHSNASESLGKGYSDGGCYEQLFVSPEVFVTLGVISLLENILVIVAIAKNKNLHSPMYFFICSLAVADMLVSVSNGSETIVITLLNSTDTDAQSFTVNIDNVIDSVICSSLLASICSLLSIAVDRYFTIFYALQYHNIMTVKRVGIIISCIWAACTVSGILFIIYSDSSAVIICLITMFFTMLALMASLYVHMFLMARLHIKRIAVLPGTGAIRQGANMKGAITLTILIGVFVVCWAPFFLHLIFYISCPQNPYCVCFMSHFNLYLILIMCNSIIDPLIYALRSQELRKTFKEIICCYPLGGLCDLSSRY
Experimental: as §11, §12

[5] = 0.1 mg/kg i.v. 5 min prior to LPS
[6] = 1.0 mg/kg i.v. 5 min prior to LPS
[7] = 120 min after initiation of LPS infusion
[8] = 5.0 mg/kg i.v. 5 min prior to LPS

**Q.** How did the “Serum IL10 measured 120 after initiation of LPS infusion” value (“Serum IL10” below) [1, 5] turn out when N=C(N)NN=CC=Cc1cccn1-c1ccc(Cl)cc1 [Compound 1, [1-(4-chlorophenyl)-1H-pyrrol-2-yl-allylideneamino]guanidinium acetate] was run?
**A.** 8485 ± 960 pg/mL

**Q.** And the “Serum IL10” value [1, 6]?
**A.** 5978 ± 890 pg/mL

**Q.** What about the “reduction of serum level of IL10 compared to vehicle treatment” value [1, 7] of the same molecule?
**A.** ~25%

**Q.** And the “Serum IL10” value [1, 8]?
**A.** 5651 ± 325 pg/mL

**Q.** And the “dose level of maximal effect (IL10)” value [1]?
**A.** 5.0 mg/kg

**Q.** What about the “Serum TNF-α measured 120 after initiation of LPS infusion” value (“Serum TNF-α” for short) [2, 5] of the same molecule?
**A.** 10830 ± 4031 pg/mL

**Q.** And the “Serum TNF-α” value [2, 6]?
**A.** 6230 ± 1786 pg/mL

**Q.** What about the “reduction of serum level of TNF-α compared to vehicle treatment” value [2] of the same molecule?
**A.** ~60%

**Q.** What about the “Serum TNF-α” value [2, 8] of the same molecule?
**A.** 5800 ± 703 pg/mL

**Q.** What about the Ki [3] of the same molecule?
**A.** 0.088 µM

**Q.** And the Ki [4]?
**A.** 0.62 µM

**Q.** What does the source list for N=C(N)NN=CC=Cc1cccn1-c1ccccc1[N+](=O)[O-] [Compound 2, [1-(2-nitrophenyl)-1H-pyrrol-2-yl-allylideneamino]guanidinium acetate]?
**A.** Serum IL10 measured 120 after initiation of LPS infusion [1, 5]: 7606 ± 1313 pg/mL; Serum IL10 measured 120 after initiation of LPS infusion [1, 6]: 4770 ± 1387 pg/mL; reduction of serum level of IL10 compared to vehicle treatment [1, 7]: ~46%; Serum IL10 measured 120 after initiation of LPS infusion [1, 8]: 4053 ± 894 pg/mL; dose level of maximal effect (IL10) [1]: 5.0 mg/kg; Serum TNF-α measured 120 after initiation of LPS infusion [2, 5]: 5964 ± 957 pg/mL; Serum TNF-α measured 120 after initiation of LPS infusion [2, 6]: 6130 ± 601 pg/mL; Serum TNF-α measured 120 after initiation of LPS infusion [2, 8]: 8380 ± 2694 pg/mL; dose level of maximal anti-inflammatory effect (TNF-α) ([2]; doses tested 0.1, 1.0, 5.0 mg/kg i.v.): 0.1 mg/kg; Ki [3]: 0.36 µM; Ki [4]: > 1 µM

**Q.** How did the “Serum IL10” value [1, 5] turn out when N=C(N)NN=CC=Cc1cccn1-c1ccccc1Br [Compound 3, [1-(2-bromophenyl)-1H-pyrrol-2-yl-allylideneamino]guanidinium acetate] was run?
**A.** 5658 ± 1119 pg/mL

**Q.** What about the “reduction of IL10 response compared to vehicle treatment” value ([1]; 1.0 mg/kg dose level, 120 min after initiation of LPS infusion) of the same molecule?
**A.** ~55%

**Q.** What about the “Serum IL10” value [1, 6] of the same molecule?
**A.** 3452 ± 1091 pg/mL

**Q.** What about the “Serum IL10” value [1, 8] of the same molecule?
**A.** 3856 ± 973 pg/mL

**Q.** What about the “dose level of maximal effect (IL10)” value [1] of the same molecule?
**A.** 1.0 mg/kg

**Q.** And the “Serum TNF-α” value [2, 5]?
**A.** 10310 ± 2728 pg/mL

**Q.** And the “Serum TNF-α” value [2, 6]?
**A.** 5250 ± 1113 pg/mL

**Q.** And the “reduction of serum level of TNF-α compared to vehicle treatment” value [2]?
**A.** ~60%

**Q.** What about the “Serum TNF-α” value [2, 8] of the same molecule?
**A.** 5020 ± 862 pg/mL

**Q.** And the Ki [3]?
**A.** 0.0026 µM

**Q.** What about the Ki [4] of the same molecule?
**A.** 0.3 µM
